Laboratory results from US12102612B2, “Pharmaceutical composition comprising hydroquinone derivative for preventing or treating obesity or nonalcoholic steatohepatitis” (BIOTOXTECH CO., LTD., priority 2018, dated 2024).
Entries after “also recorded” stand apart in the source; their conditions may differ.

Tests used:
[1] = test system: nonalcoholic fatty liver in mice; conditions: cited from earlier work
[2] = test system: mice; conditions: repeated for 13 weeks; cited from earlier work
[3] = test system: normal persons and nonalcoholic fatty liver patients; conditions: 10-25 mg per adult; cited from earlier work
[4] = test system: CD-1(ICR) mice; conditions: mouse, in vivo; cited from earlier work
[5] = test system: western diet NASH mouse models; conditions: cited from earlier work
[6] = test system: MCD diet-fed NASH model (8 weeks); assay: Efficacy in NASH model fed with methionine and choline deficient (MCD) diet for 8 weeks; assay type: in vivo, male C57BL/6 mice; conditions: MCD diet 8 weeks; for alleviative effect on NASH / inhibitory activity against NASH: compared to the negative control, RSV and DDB complex 200 mg/kg
From the text: A methionine and choline deficient (MCD) diet-fed model, in which steatosis has been induced as a result of the supply of a diet deficient in methionine and choline, which each play an important role in beta oxidation and very low-density lipoprotein, (VLDL) synthesis, is widely used as a model for observing an effect of alleviating NASH because it suffers from histopathologically serious lobular inflammation.
An MCD diet (RESEARCH DIETS, Product No: A02082002B) was fed 7-week-old male C57BL/6 mice for 4 weeks to induce nonalcoholic fatty liver and then for an additional 4 weeks during which the hydroquinone derivative compound 2,3,5-trimethylhydroquinone-1-hexylether (compound 1) according to the present invention and the comparative control drugs were orally administered to the mice at the specific doses repeatedly as indicated for test groups G3-G8 in Table 2. Alleviative effects on NASH were assessed by clinicopathological and histopathological examinations.
The normal group was fed with a normal diet (RESEARCH DIETS, Product No: A02082003B), but not the MCD diet. To the negative control, only the excipient 0.5% methyl cellulose (MC) aqueous solution was administered after the MCD diet was fed thereto. […] For resveratrol and the DDB hepatoprotectant, the daily dose was set forth to be 200 mg/kg.
The liver tissues were resected from mice fed with MCD diet for 8 weeks and prepared into hematoxylin-eosin (H&E) stained slides, as in the histopathological examination method of Test Example 1. Based on the criteria of Table 1, changes in 1) steatosis, 2) lesions such as hepatic lobular inflammation, etc. (lobular inflammation), and 3) ballooning degeneration of hepatocytes (ballooning) were analyzed and the scores were summed to afford NAFLD activity scores for evaluating therapeutic effects on NASH.

[7] = test system: rats; assay: Single-dose oral administration toxicity assay for rats; assay type: in vivo; conditions: single oral dose as high as 2000 mg/kg
[8] = test system: adult; assay: Clinical trial phase 1 (single and 14-day repetitive administration); assay type: in vivo, human; conditions: for abnormal responses (such as dyslipidemia) after repetitive administration: up to 1,000 mg per adult for 14 days
[9] = test system: high-fat diet-fed obesity and NASH model; assay: Efficacy in obesity and NASH model fed with high-fat diet (HFD); assay type: in vivo, male C57BL/6 mice
Experimental: High-fat diet with 60 kcal % (RESEARCH DIETS, Product No: D12492) was fed to 7-week-old male C57BL/6 mice for 16 weeks to induce nonalcoholic fatty liver, followed by repeatedly administering test substances, along with the high-fat diet, via an oral route for 9 weeks from weeks 17 to 25. Alleviative effects on NASH were assessed by clinicopathological and histopathological examinations.
The test groups included a normal control which was not fed with HFD, but with a normal diet (10 kcal % fat diet, RESEARCH DIETS, Product No: D12450B), a negative control which was fed with HFD and then with the excipient 0.5% methyl cellulose (MC) aqueous solution alone, compound 1 (2,3,5-trimethylhydroquinone-1-hexylether)-administered groups (30, 100, 200 mg/kg), and comparative controls (obeticholic acid 30 mg/kg, pioglitazone 10 mg/kg, and DDB hepatoprotectant 200 mg/kg).
During repeatedly oral administration of the test substances for 9 weeks as in the assay method of (1), the mice were observed and recorded for weight gain, food intake, and general symptoms.
Liver tissues were resected from HFD-fed mice and prepared into hematoxylin-eosin (H&E) stained slides, as in the histopathological examination method of Test Example 1. Based on the criteria of Table 1, changes in 1) steatosis, 2) lesions such as hepatic lobular inflammation, etc. (lobular inflammation), and 3) ballooning degeneration of hepatocytes (ballooning) were analyzed and the scores were summed to afford NAFLD activity scores for evaluating therapeutic effects on NASH.

[10] = test system: beagle dogs; assay: Maximum tolerance dose in beagle dogs; assay type: in vivo
[11] = test system: MCD diet-fed NASH model (12 weeks); assay: Efficacy in NASH model fed with MCD diet for 12 weeks; assay type: in vivo, male C57BL/6 mice; conditions: MCD diet 12 weeks
From the text: The duration of feeding MCD diet was extended to a total of 12 weeks to increase the induction level of NASH. To this end, male C57BL/6 mice at 7 weeks of age were fed with a methionine and choline-deficient diet for 8 weeks to induce nonalcoholic fatty liver and then subjected to the same repeat administration program at the same doses for 4 weeks as in Table 2.

[12] = test system: high-fat diet-induced insulin resistance; assay: Insulin resistance assay in high-fat diet-fed mice; assay type: in vivo, male C57BL/6 mice; conditions: week 7 of administration, vs negative control and other drug controls
Experimental: An insulin resistance assay was conducted on week 7 of administration of compound 1 to examine the effect of compound 1 on the insulin resistance induced by high-fat diet. For the insulin resistance assay, the mice were fast for 4 hours and intraperitoneally injected with insulin (0.7 IU/kg), followed by measuring blood glucose levels every 30 min. Insulin resistance was digitized for quantitative comparison. In this regard, while pre-insulin blood levels were set forth to be baselines, areas under the curves of reduced blood glucose levels were digitized into iAUC values (FIG. 14). Here, a smaller iAUC value means higher insulin resistance and a larger iAUC value means higher insulin sensitivity.

[13] = test system: FFC diet-fed non-alcoholic steatohepatitis model; assay: Efficacy in fat-, fructose- and cholesterol-rich (FFC) diet-fed non-alcoholic steatohepatitis model; assay type: in vivo, male C57BL/6 mice
From the text: FFC diet (fat-, fructose-, and cholesterol-rich diet) (RESEARCH DIETS, Product No.: D12079B) was fed to male C57BL/6 mice 6-7 weeks old for 16 weeks to induce nonalcoholic fatty liver. Only animals with a NAFLD activity score (NAS) of 3.2 or more were selected by biopsy. Two weeks after biopsy, the animals were divided into three test groups including a negative control injected with a 0.5% methyl cellulose (MC) aqueous solution only (FFC control) and compound 1 groups injected with a solution of compound 1 (2,3,5-trimethylhydroquinone-1-hexylether compound, 30 mg/kg and 200 mg/kg) in a 0.5% MC aqueous solution. Compound 1 was administered for a total of 2 months and evaluated for alleviative efficacy for NASH by histopathological examination.
For histopathological examination, the mice were sacrificed and subjected to hepatectomy. The liver tissues thus obtained were prepared into hematoxylin-eosin (H&E) stained slides. In brief, the resected liver tissues were fixed in 4% paraformaldehyde at 4° C. for 24 hours, washed with flowing water, embedded into paraffin, and sectioned into blocks 3-4 μm thick. The sectioned tissue was attached to a coated slide, de-paraffinized with xylene, and rehydrated with graded alcohols (99%, 95%, 90%, 80%, and 70% ethanol (EtOH)) before histological staining. The sectioned tissues were stained with hematoxylin for 5 min and washed with flowing water for 5 min, following by destaining with 1% HCl alcohol and ammonia. Subsequently, the tissues were washed with flowing water for 10 min, counterstained with eosin for 1 min, and dehydrated in the reverse order of the hydration before mounting.
The H&E-stained slides were histopathologically assessed under a microscope and scored according to the NAFLD activity score (NAS) criteria given in Table 1. NAFLD activity scores are expressed as a sum of assessment scores for changes in 1) steatosis, 2) lesions such as hepatic lobular inflammation, etc. (lobular inflammation), and 3) ballooning degeneration of hepatocytes (ballooning) and are widely used for evaluating the severity of NASH.

[14] = test system: rats; assay: Toxicity assay of repetitive oral administration for 13 weeks; assay type: in vivo; conditions: repeated for 13 weeks

Question: Which “dose that aggravates fatty liver” value [1] does the source give for CCc1ccc(CCOc2ccc(CC3SC(=O)NC3=O)cc2)nc1 (stereo not shown) [Pioglitazone, pioglitazone] here?
Answer: 25 mg/kg

Question: What about the “dose at which subject death occurred” value [2] of the same compound?
Answer: ≥ 320 mg/kg

Question: What about the “dose causing cardiac adverse effects” value [2] of the same compound?
Answer: ≥ 100 mg/kg

Question: With CC[C@H]1[C@@H](O)[C@@H]2[C@H](CC[C@]3(C)[C@@H]([C@H](C)CCC(=O)O)CC[C@@H]23)[C@@]2(C)CC[C@@H](O)C[C@@H]12 [Obeticholic acid, obeticholic acid] as the compound, how does the “total cholesterol and LDL cholesterol levels (side effect)” value [3] read?
Answer: increasing total cholesterol and LDL cholesterol levels

Question: What about the “dose causing serious side effects such as death of animals” value [4] of the same compound?
Answer: ≥ 175 mg/kg

Question: And the “dose that aggravated NAFLD (liver fibrosis worsen, ALT level increased)” value [5]?
Answer: ≥ 40 mg/kg

Question: Which ALT level ([6]; 200 mg/kg, vs negative control and comparative control groups, FIG. 6) does the source give for CCCCCCOc1cc(C)c(O)c(C)c1C [compound 1, 2,3,5-trimethylhydroquinone-1-hexylether] here?
Answer: remarkably reduced

Question: And the “alleviative effect on NASH / inhibitory activity against NASH” value [6]?
Answer: excellent inhibitory activity against NASH

Question: What about the “effect of reducing lobular inflammatory cellular infiltration” value ([6]; oral 30 and 200 mg/kg for 4 weeks, vs MCD control, FIG. 4) of the same compound?
Answer: remarkable

Question: What about the NAFLD activity scores ([6]; FIG. 5) of the same compound?
Answer: reduce

Question: What about the “anti-inflammatory efficacy compared to pioglitazone (PGZ) and obeticholic acid (OCA)” value ([6]; PGZ 10 mg/kg, OCA 30 mg/kg) of the same compound?
Answer: excellent anti-inflammatory efficacy

Question: And the mortality [7]?
Answer: did not cause mortality

Question: And the “abnormal responses after single dose” value ([8]; single dose of up to 2,000 mg per adult)?
Answer: no abnormal responses were observed

Question: And the “abnormal responses (such as dyslipidemia) after repetitive administration” value [8]?
Answer: no abnormal responses, such as dyslipidemia, were reported; also recorded: no abnormal responses were observed

Question: What about the “abnormal responses (such as dyslipidemia) after repetitive administration” value ([8]; listed as 2,3,5-trimethylhydroquinone-1-hexylether) of the same compound?
Answer: no abnormal responses were observed

Question: What about the “suppressive effect on lobular inflammation” value ([9]; 200 mg/kg, compared to the other drug groups) of the same compound?
Answer: remarkably highly suppressive effect

Question: And the fatty liver ([9]; 30, 100, 200 mg/kg, vs HFD control, dose-dependent)?
Answer: alleviated

Question: What about the “hepatic lobular cellular infiltration” value ([9]; 30, 100, 200 mg/kg, vs HFD control, dose-dependent, FIG. 15) of the same compound?
Answer: alleviated

Question: What about the “blood levels of cholesterol” value ([9]; HFD model, compared to the negative control, FIG. 19(A)) of the same compound?
Answer: reduced

Question: And the “blood levels of triglyceride” value ([9]; HFD model, compared to the negative control, FIG. 19(B))?
Answer: reduced

Question: What about the ALT ([9]; HFD model, relative to normal levels, FIG. 17) of the same compound?
Answer: recovered

Question: And the AST ([9]; HFD model, relative to normal levels, FIG. 18)?
Answer: recovered

Question: What about the “ALT levels vs the other drug controls” value ([9]; HFD model, FIG. 17) of the same compound?
Answer: further reduced

Question: And the “AST levels vs the other drug controls” value ([9]; HFD model, FIG. 18)?
Answer: further reduced

Question: What about the “accumulation of visceral fats such as epididymal fats (epididymal fat weights)” value ([9]; autopsy after 9 weeks oral administration, FIG. 11) of the same compound?
Answer: excellent effect of inhibiting the accumulation of visceral fats

Question: What about the “therapeutic effects on NASH by histopathological examinations (lobular inflammation, NAFLD activity scores)” value ([9]; compared to the other drugs, FIGS. 15 and 16) of the same compound?
Answer: excellent therapeutic effects on NASH

Question: And the “weight gain increments resulting from the intake of high-fat diet” value ([9]; oral 30, 100, 200 mg/kg for 9 weeks, vs HFD control, FIG. 9)?
Answer: remarkably reduced

Question: What about the maximum tolerance dose [10] of the same compound?
Answer: 2,000 mg/kg

Question: What about the “lobular inflammatory cellular infiltration” value ([11]; oral 30 and 200 mg/kg for 4 weeks, vs MCD control, dose-dependent, FIG. 7) of the same compound?
Answer: reduced lobular inflammatory cellular infiltration

Question: And the NAFLD activity scores ([11]; vs MCD control, dose-dependent, FIG. 8)?
Answer: lowered NAFLD activity scores

Question: And the “anti-inflammatory effect compared to pioglitazone (PGZ) and obeticholic acid (OCA)” value ([11]; PGZ 10 mg/kg, OCA 30 mg/kg)?
Answer: excellent anti-inflammatory effect

Question: What about the “blood glucose level upon insulin administration” value ([12]; 4 h fast, insulin 0.7 IU/kg i.p., FIG. 13) of the same compound?
Answer: reduced in blood glucose level more fast

Question: And the “suppressive effect on high-fat diet-induced insulin resistance (iAUC values)” value ([12]; FIG. 14)?
Answer: higher suppressive effect on high-fat diet-induced insulin resistance

Question: And the fatty liver ([13]; 30 and 200 mg/kg for 2 months, dose-dependent, FIG. 2)?
Answer: alleviated

Question: What about the NAFLD activity scores ([13]; 30 and 200 mg/kg for 2 months, dose-dependent, FIG. 3) of the same compound?
Answer: alleviated

Question: What about the “lobular inflammatory cellular infiltration (lobular inflammation)” value ([13]; compound 1 30 and 200 mg/kg for 2 months, vs FFC control, FIG. 1) of the same compound?
Answer: decrease lobular inflammatory cellular infiltration

Question: What about the “side effects such as death, weight loss, organ failure” value ([14]; dose as high as 500 mg/kg) of the same compound?
Answer: did not invoke significant side effects; also recorded: no side effects such as death, weight loss, organ failure, etc. were detected

Question: What about the “changes in weight gain, food consumption, urological and serological examinations” value ([14]; up to 500 mg/kg, FIG. 12) of the same compound?
Answer: No changes attributed to the administration of compound 1 were detected

Question: Which results are given for Oc1ccc(C=Cc2cc(O)cc(O)c2)cc1 [Resveratrol, resveratrol, reference compound]?
Answer: alleviative effect on NASH / inhibitory activity against NASH [6]: did not exhibit an alleviative effect on NASH; alleviative effect on NASH ([11]; 200 mg/kg, compared to the negative control): did not exhibit an alleviative effect on NASH
